“Also recorded” adds a separate entry of the source. Where a SMILES comes first, the peptide text is derived from it. The star is where a group is joined. Cbz = O=C(OCc1ccccc1)*; CH2F = FC*

This is an account of results in patent US20230032934A1, “METHOD OF PRODUCING TUMOR-REACTIVE T CELL COMPOSITION USING MODULATORY AGENTS” (Myst Therapeutics, LLC, priority 2019, published 2023).

Experiment [1] deals with expanded human T cells from three healthy donors. The experiment in a line: Cytokines, modulators and agonist antibodies with IL-2 on T cell number and naive/central memory phenotype. In kind it is cell-based. As for the experimental part:
PBMC from three healthy donors were activated, expanded, and cryopreserved as described in Example 11. […] As previously described, stimulation of the healthy donor T cells prior to cryopreservation were carried out with anti-CD3 (OKT3) stimulation in order to mimic conditions present in the tumor microenvironment (TME).
Cells were next seeded into gas permeable 100M culture vessels and expanded for 7-14 days to achieve a large bank of T cells, and cryopreserved.
Cells were maintained in culture for 6 days, with a 50% medium exchange occurring at 3 days post culture initiation.
At the end of the culture period for all culture conditions, cells were assessed for cell count and sub-phenotypes of naïve and central memory T cells by flow cytometry by staining with CD45RA and CCR7 (naïve, CD45RA+ CCR7+; “central” memory, CD45RA− CCR7+).

Experiment [2] deals with PBMC from two healthy donors. Description: T cell expansion with FasL blockade or caspase inhibition, anti-CD3/anti-CD28 bead stimulation (transient or continuous activation). In kind it is cell-based, human. The method, then: Cells were then seeded into a 24-well gas permeable cell culture plate at a density of 1.5×10^5 cells/mL (5.0×10^5 cells/cm^2).
Culture wells were assigned to one of two treatment groups, transient or continuous activation. For transient activation, anti-CD3/anti-CD28 paramagnetic beads (Dyanbeads™) were added to the culture media at a ratio of 1 bead per cell starting on culture day 0, and then were removed during media exchange on day 2. For continuous activation, anti-CD3/anti-CD28 paramagnetic beads (Dyanbeads™) were added to the culture media at a ratio of 1 bead per cell starting on culture day 0, and then added again on Day 4, and again on Day 6 at a ratio of 1 bead per cell. The anti-CD3/anti-CD28 paramagnetic beads were not removed on Day 2, 4 or 6.
For both the continuous and transient activation, culture wells were assigned to one of five treatment groups as described above for 10 conditions total per donor.
Cell counts and viability were monitored every other day. When cells reached 3×10^6 cells/ml, 1.5×10^6 cells were sub-cultured into a new well of a 24-well gas permeable culture plate with 7 mL final volume of medium and the culture continued as described above.

In experiment [3] the test system is expanded human T cells from three healthy donors. Description: Effect of T cell adjuvants on T cell viability (total viable CD3+ cell count, with and without OKT3). In kind it is cell-based. The note with it: 10 μg/mL for antibodies, 25 μM for Z-VAD-FMK; 6 days; irrespective of activation status. As for the experimental part: Cells were expanded from PBMC derived from Ficoll gradient separation from three healthy donor's apheresis material. […] Because the studies were carried out in healthy donors, stimulation of the T cells was carried out with anti-CD3 (OKT3) stimulation in order to mimic conditions present in the tumor microenvironment (TME).
Cells were next seeded into gas permeable 100M culture vessels and expanded for 7-14 days to achieve a large bank of T cells, and cryopreserved. […] Half of wells were additionally supplemented with 50 ng/mL OKT3, a human anti-CD3 monoclonal antibody. In total, 15 test adjuvant agents were tested for their impact on cell viability in the presence and absence of anti-CD3 activation (see Table E3). Cells were cultured for 6 days total, including a 50% medium exchange on culture day 3, and monitored for total viable CD3+ cell count.
Total viable CD3+ cell count for cells grown in the absence and presence of OKT3 stimulation are shown in FIGS. 27A-C and FIGS. 28A-C, respectively. The results shown are for the following concentrations of adjuvant: 10 μg/mL for tested antibodies (Tavolixizumab, Oxelumab, Ipilimumab, Tocilizumab, Urelumab, Pembrolizumab, Varlilumab, anti-GITR MK-1248, anto-human FasL); 25 μM for Z-VAD-FMK pan-caspase inhibitor; 250 nM for HSP inhibitor NVP-HSP990; and 1000 IU/mL for cytokine (IL-7, IL-15, IL-21, IL-23, IL-25, IL-27, or IL-35)).

The test system of experiment [4] is PBMC from three healthy donors. The experiment in a line: T cell expansion with FasL blockade or caspase inhibition, anti-CD3 (OKT3) stimulation. In kind it is cell-based, human. The note with it: OKT3 activation; agent replenished at each media exchange (continuous); 2 μM Z-VAD-FMK or 500 ng/ml NOK-1. The method, then: Apoptotic inhibitors directed against Fas- and caspase-mediated pathways were assessed to determine effects on tumor reactive T cells during manufacturing. The studies were carried out in healthy donors, and thus, stimulation of the T cells were carried out with anti-CD3 (OKT3) or anti-CD3/anti-CD28 stimulation in order to mimic conditions present in the tumor microenvironment (TME). Constant activation signals present in the tumor microenvironment, as can be stimulated by anti-CD3 or anti-CD3/anti-CD28 activation can be detrimental to T cell growth. Cellular viability and projected cell numbers were used to compare the impact of modulation of apoptotic pathways in both a transient and a continuous activation assay, the latter of which more closely recapitulates the tumor microenvironment.
Cells were then seeded into a 24-well gas permeable cell culture plate at a density of 2.14×10^5 cells/mL (7.5×10^5 cells/cm^2). Cells were activated for 48 hours using 50 ng/ml OKT3, a human anti-CD3 monoclonal antibody, and were additionally treated with agents as described below. […]
Cultures were maintained for at least 13 days with a 50% media exchange every other day beginning on culture day 2. Cell counts and viability were monitored every other day. […]

Experiment [5] deals with CRC tumor fragment or SCS cultures. The experiment in a line: Caspase inhibition in tumor processing (tumor fragment and SCS cultures). In kind it is cell-based, human. As to conditions: 2 μM replenished at each media exchange. The method, then: Half of cultures contained media additionally supplemented with 2 μM of pan-caspase inhibitor Z-VAD-FMK which was replenished at each media exchange. Cultures were incubated at about 37° C. for a minimum of 18 days with a 50% medium exchange occurring every 2-3 days following culture day 5. Cell counts were performed on day 5 and at each medium exchange using the NC-200 Automated Cell Counter (ChemoMetec).

Experiment [6] deals with T-cells from three healthy donors. Description: Activation markers on CD4+ and CD8+ T cells after OKT3 activation, flow cytometry. As to conditions: 50 ng/mL OKT3 vs no OKT3; 3-48 hours. In kind it is cell-based, human. As for the experimental part: Specific markers of activation on the CD4+ and CD8+ cell populations were measured using flow cytometry over a time course of 3-48 hours. Specifically, the following markers were assessed: CD38 and CD39 (FIG. 12A and FIG. 13A), CD134 and CD137 (FIG. 12B and FIG. 13B), and CD69 and CD90 (FIG. 12C and FIG. 13C).
On the technique in general: A flow cytometer gives signals particle by particle.

In experiment [7] the test system is cells processed from melanoma tumor fragments. Description: Anti-CD3 (OKT3) stimulation on expansion of melanoma tumor-derived cells. In kind it is cell-based, human. The method, then: Cells processed from melanoma tumor fragments as described in Examples 1 and 2, were cultured in the presence or absence of 50 ng/mL OKT3, a human anti-CD3 monoclonal antibody. Cell cultures were carried out to between 14 and 31 days, such as between 14 and 21 days, in either a conventional 6-well plate or a gas permeable culture plate with RPMI or OpTmizer media. […] About 50% of cellular media was exchanged every other day beginning on the 5th day of culture as described previously. Cells were then counted using the NC-200 Automated Cell Counter (Chemometec).

On to `COC(=O)C[C@H](NC(=O)[C@H](C)NC(=O)[C@@H](NC(=O)OCc1ccccc1)C(C)C)C(=O)CF` [Z-VAD-FMK, carbobenzoxy-valyl-alanyl-aspartyl-[O-methyl]-fluoromethylketone] (Cbz-Val-Ala-Asp(OMe)-CH2F), for which the “percent of naïve and central memory T cells compared to IL-2 alone” value in experiment [1] (0.2 μg/mL-50 μg/mL, Day 6) was “no effect”. Moreover, in experiment [1] (concentrations higher than 0.2 μg/mL), the “CD3+ cells/mL on Day 6 compared to IL-2 alone” value was “substantially increased”. For the same compound, the “total viable cell number and viability” value in experiment [2] (agent continuous, listed as caspase inhibitor) was “outperformed the other conditions; also recorded: outperforming the transient condition”. Moreover, in experiment [2] (agent transient (day 0 only)), the “total viable cell number and viability” value is on record as “outperformed the other conditions”. The “viable cell counts versus DMSO treatment control” value in experiment [3] was “consistently higher viable cell counts”. In addition, the “cell growth (total cell number)” value in experiment [4] is “greatest cell growth”. Besides, in experiment [5] (SCS culture), the cell viability result is given as “similarly high” and the “outgrowth of T cells” value is “not observed”. For the same compound, in experiment [5] (tumor fragment-derived culture), the cell viability entry is recorded as “also high” and the “outgrowth of cells (fold expansion, total viable cells)” value was “superior”.
With “OKT3: a human anti-CD3 monoclonal antibody”, in experiment [6], the “upregulation of activation markers CD38, CD39, CD134, CD137, CD69, CD90 on CD4+ T cells” value is “all assessed markers were upregulated to some extent” and the “upregulation of activation markers CD38, CD39, CD134, CD137, CD69, CD90 on CD8+ T cells” value is “all assessed markers were upregulated to some extent”. In experiment [7] (50 ng/mL OKT3 vs no OKT3, with 300 or 6000 IU/mL IL-2, 14-31 days), the “total cell number and fold expansion” value is recorded as “did not substantially impact; also recorded: largely similar”. In addition, in experiment [7] (Donor 6, presence or absence of anti-CD3 stimulation, all conditions), the fold expansion is reported as 2-4 fold.
